Measured values from ChEMBL document CHEMBL1137133, “Defining determinant molecular properties for the blockade of the apamin-sensitive SKCa channel in guinea-pig hepatocytes: the influence of polarizability and molecular geometry” (Bioorg Med Chem Lett, 2004).

Assay: Inhibition of I-apamin-sensitive SKCa channel of guinea-pig hepatocytes; 0.14+/-0.01
Format: cell-based, Cavia porcellus
Details: hepatocyte

Work on c1ccc2c(c1)c1cc[n+]2CCCCC[n+]2ccc(c3ccccc32)NCCCCCN1 yielded a Ki of 0.00014 µM.

Assay: Inhibition of apamin-sensitive SKCa channel of guinea-pig hepatocytes
Format: cell-based, Cavia porcellus
Details: hepatocyte

First: CCCCOc1cc(C(=O)NCCN(CC)CC)c2ccccc2n1 [DIBUCAINE]
Second: CCN(CC)CCCC(C)Nc1c2ccc(Cl)cc2nc2ccc(OC)cc12 (stereo not given) [QUINACRINE]
The IC50 of the first is 6.4-fold higher: 470 µM for the first, 73 µM for the second. The second is the more potent here.

First: Nc1c2ccccc2nc2ccccc12 [AMINACRINE]
Second: Cc1cc(N)c2ccccc2[n+]1CCCCCCCCCC[n+]1c(C)cc(N)c2ccccc21 [DEQUALINIUM CHLORIDE]
The IC50 of the first is 71-fold higher: 120 µM for the first, 1.7 µM for the second. The second is the more potent here.

C=C[C@H]1CN2CC[C@H]1C[C@@H]2[C@@H](O)c1ccnc2ccccc12 [CINCHONINE] and C=CC1CN2CCC1CC2[C@H](O)c1ccnc2ccccc12 (stereo not given in full) are within 1.5-fold of each other in IC50: 370 µM for the first, 420 µM for the second.

Going from CC[N+](CC)(CC)CCOc1cccc(OCC[N+](CC)(CC)CC)c1OCC[N+](CC)(CC)CC [GALLAMINE] to CC[N+](CC)(CC)CC [TETRYLAMMONIUM], the IC50 rises from 12 µM to 7900 µM (660-fold).

First: COc1cc(NC(C)CCCN)c2ncccc2c1 (stereo not given) [PRIMAQUINE]
Second: C=C[C@H]1CN2CC[C@H]1C[C@@H]2[C@@H](O)c1ccnc2ccc(OC)cc12 [QUINIDINE]
The IC50 of the first is 4-fold higher: 970 µM for the first, 240 µM for the second. The second is the more potent here.

Going from C[N+](C)(C)CCCCCCCCCC[N+](C)(C)C [DECAMETHONIUM] to C[N+](C)(C)CCCCCC[N+](C)(C)C [HEXAMETHONIUM CHLORIDE], the IC50 rises from 450 µM to 2000 µM (4.4-fold). The first is the more potent here.

O=C1C[C@@H]2OCC=C3CN4CC[C@]56c7ccccc7N1[C@H]5[C@H]2[C@H]3C[C@H]46 [STRYCHNINE] and C=C[C@H]1CN2CC[C@H]1C[C@H]2[C@H](O)c1ccnc2ccc(OC)cc12 [QUININE] are within 1.5-fold of each other in IC50: 190 µM for the first, 150 µM for the second.

COc1cc2c3cc1Oc1cc(ccc1O)C[C@@H]1c4c(cc(OC)c(O)c4Oc4ccc(cc4)C[C@@H]3N(C)CC2)CC[N+]1(C)C and COc1ccc(CC2c3cc(OC)c(OC)cc3CC[N+]2(C)CCC(=O)OCCCCCOC(=O)CC[N+]2(C)CCc3cc(OC)c(OC)cc3C2Cc2ccc(OC)c(OC)c2)cc1OC (stereo not given) are the same in IC50: 3 µM for the first, 3 µM for the second.

CC(=O)O[C@H]1C[C@@H]2CC[C@@H]3[C@H](CC[C@@]4(C)[C@H]3C[C@H]([N+]3(C)CCCCC3)[C@@H]4OC(C)=O)[C@@]2(C)C[C@@H]1[N+]1(C)CCCCC1 [PANCURONIUM] and CC(=O)O[C@H]1C[C@@H]2CC[C@@H]3[C@H](CC[C@@]4(C)[C@H]3C[C@H]([N+]3(C)CCCCC3)[C@@H]4OC(C)=O)[C@@]2(C)C[C@@H]1N1CCCCC1 [VECURONIUM] are within 1.5-fold of each other in IC50: 3.5 µM for the first, 4.5 µM for the second.

With c1ccc2c(c1)c1cc[n+]2Cc2ccc(cc2)Cc2ccc(cc2)C[n+]2ccc(c3ccccc32)NCCCCCCCCCCN1 [UCL-1530] the IC50 was 2.6 µM.
